Laboratory results from ChEMBL document CHEMBL1201862, “PubChem BioAssay data set” (2004).
The source made the active and inactive calls.

Legend:
Hexokinase-1 [1] = target: T1, Hexokinase-1 (Homo sapiens, UniProt P19367); experiment: SAR analysis of small molecule inhibitors of hexokinase domain containing I (HKDC1) in the hexokinase 1 selectivity assay. [Related pubchem assays (depositor defined):AID493160, AID493190]; type: functional
T1 sequence (P19367 whole entry): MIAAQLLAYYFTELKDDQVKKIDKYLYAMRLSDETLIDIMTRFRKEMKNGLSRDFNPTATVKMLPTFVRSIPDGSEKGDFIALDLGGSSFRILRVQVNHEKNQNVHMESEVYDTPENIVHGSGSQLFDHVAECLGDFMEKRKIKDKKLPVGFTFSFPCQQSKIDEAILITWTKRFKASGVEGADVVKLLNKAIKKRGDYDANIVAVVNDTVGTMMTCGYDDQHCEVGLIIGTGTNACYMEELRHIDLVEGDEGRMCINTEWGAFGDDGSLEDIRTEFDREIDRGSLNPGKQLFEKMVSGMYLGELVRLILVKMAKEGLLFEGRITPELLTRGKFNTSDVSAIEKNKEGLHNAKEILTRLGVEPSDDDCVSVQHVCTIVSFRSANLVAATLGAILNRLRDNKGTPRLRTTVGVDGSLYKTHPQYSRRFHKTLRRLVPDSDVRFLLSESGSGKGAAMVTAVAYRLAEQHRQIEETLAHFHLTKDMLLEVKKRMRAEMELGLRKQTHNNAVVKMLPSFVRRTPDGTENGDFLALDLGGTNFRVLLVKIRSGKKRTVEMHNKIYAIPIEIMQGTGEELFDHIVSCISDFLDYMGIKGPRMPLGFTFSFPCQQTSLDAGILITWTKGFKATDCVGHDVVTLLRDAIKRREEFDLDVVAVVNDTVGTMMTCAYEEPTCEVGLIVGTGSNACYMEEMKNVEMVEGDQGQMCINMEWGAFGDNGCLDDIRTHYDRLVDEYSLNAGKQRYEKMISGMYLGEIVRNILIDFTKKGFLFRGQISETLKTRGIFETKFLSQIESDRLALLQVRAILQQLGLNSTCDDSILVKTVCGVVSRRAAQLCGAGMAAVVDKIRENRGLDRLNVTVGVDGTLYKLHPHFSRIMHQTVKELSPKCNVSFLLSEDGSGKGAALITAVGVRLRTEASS

Hexokinase HKDC1 [2] = target: T2, Hexokinase HKDC1 (Homo sapiens, UniProt Q2TB90); experiment: SAR analysis of small molecule inhibitors of hexokinase domain containing I (HKDC1). [Related pubchem assays (depositor defined):AID493160, AID493190]; type: functional
T2 sequence (Q2TB90 whole entry): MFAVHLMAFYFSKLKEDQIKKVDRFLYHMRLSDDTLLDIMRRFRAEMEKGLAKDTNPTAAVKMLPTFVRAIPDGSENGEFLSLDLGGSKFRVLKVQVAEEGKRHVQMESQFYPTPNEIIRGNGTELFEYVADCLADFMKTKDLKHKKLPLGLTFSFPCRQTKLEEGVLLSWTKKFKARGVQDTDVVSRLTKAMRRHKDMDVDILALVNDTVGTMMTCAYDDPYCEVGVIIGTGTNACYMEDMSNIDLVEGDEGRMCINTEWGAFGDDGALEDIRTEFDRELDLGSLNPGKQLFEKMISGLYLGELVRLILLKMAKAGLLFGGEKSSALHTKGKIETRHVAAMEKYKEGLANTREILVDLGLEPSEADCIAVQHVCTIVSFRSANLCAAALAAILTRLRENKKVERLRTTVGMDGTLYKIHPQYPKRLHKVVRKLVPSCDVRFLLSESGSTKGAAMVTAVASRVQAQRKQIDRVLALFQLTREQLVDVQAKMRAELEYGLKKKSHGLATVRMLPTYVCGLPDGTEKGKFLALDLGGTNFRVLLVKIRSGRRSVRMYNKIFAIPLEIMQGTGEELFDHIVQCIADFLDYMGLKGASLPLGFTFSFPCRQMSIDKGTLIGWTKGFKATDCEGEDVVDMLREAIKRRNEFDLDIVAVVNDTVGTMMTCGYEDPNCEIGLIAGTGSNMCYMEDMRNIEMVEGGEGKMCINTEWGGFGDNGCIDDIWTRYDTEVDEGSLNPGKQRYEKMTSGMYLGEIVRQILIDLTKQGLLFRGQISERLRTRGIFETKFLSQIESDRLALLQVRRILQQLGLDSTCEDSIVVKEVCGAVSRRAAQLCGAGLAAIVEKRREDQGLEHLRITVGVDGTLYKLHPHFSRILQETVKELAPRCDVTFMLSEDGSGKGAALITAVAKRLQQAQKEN

A-375 = experiment: A375 melanoma cell viability reduction, dose response, counter-screen for MITF modulator project, cherry-pick samples, set 2 (AID 540335); type: functional, cell-based; conditions: Homo sapiens
Beta-galactosidase = Beta-galactosidase (Escherichia coli, UniProt Q8VNN2); experiment: PubChem AID 485352; type: functional
Chain of Beta-galactosidase (Q8VNN2 whole entry): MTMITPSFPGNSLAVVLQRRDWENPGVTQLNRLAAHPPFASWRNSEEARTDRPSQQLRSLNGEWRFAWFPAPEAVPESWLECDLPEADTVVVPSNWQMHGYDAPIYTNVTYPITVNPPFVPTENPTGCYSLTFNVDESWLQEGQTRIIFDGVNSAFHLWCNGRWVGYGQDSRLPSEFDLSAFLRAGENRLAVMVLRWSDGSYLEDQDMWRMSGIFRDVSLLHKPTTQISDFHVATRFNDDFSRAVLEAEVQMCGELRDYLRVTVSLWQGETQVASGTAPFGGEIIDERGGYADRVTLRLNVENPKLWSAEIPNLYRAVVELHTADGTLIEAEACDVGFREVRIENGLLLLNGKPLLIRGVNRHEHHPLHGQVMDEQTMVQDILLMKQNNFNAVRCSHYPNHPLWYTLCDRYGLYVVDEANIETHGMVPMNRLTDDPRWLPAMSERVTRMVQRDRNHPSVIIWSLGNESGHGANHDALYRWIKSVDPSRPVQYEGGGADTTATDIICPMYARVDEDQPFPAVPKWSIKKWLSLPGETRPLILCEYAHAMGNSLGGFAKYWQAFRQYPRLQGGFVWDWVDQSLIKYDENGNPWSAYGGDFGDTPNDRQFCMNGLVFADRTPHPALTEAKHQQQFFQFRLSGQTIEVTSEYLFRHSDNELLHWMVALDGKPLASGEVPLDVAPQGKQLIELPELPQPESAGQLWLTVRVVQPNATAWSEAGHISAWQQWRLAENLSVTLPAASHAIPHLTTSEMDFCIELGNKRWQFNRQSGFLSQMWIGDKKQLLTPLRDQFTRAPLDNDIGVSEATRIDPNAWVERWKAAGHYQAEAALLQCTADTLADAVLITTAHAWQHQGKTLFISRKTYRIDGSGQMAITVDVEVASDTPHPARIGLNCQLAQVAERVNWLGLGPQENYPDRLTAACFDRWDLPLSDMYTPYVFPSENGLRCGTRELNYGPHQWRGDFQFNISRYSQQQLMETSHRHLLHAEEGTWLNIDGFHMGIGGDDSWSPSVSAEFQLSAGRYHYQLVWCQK

[3] = target: T3, Type-1 angiotensin II receptor (Homo sapiens, UniProt P30556); experiment: AT1 receptor antagonists, dose response, selectivity assay for APJ receptor antagonist project, cell-based, uHTS hits (AID 463214); type: functional;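 note: antagonist potency against angiotensin II stimulated AT1 response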
T3 sequence (P30556 whole entry): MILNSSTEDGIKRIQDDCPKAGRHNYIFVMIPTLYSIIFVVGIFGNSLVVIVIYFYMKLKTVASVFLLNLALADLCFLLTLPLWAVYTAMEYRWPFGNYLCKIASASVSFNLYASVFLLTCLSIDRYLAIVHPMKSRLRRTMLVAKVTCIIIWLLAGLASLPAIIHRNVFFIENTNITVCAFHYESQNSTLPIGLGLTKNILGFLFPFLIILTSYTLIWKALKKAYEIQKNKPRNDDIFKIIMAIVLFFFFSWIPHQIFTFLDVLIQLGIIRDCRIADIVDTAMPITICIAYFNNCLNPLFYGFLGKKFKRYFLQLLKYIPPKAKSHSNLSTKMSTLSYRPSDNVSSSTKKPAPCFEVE

[4] = Shn3 3'UTR reporter inhibitors, dose response, cell-based, Clone20 osteoblasts, firefly luciferase, cherry-picked (AID 624132); type: functional;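 note: firefly luciferase luminescence from reporter carrying the Shn3 3'UTR in osteoblasts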
[5] = HepG2 cell cytotoxicity, dose response, cytotoxicity control for Shn3 inhibitor project, CellTiter-Glo, cherry-picked (AID 624134); type: functional, cell-based
[6] = Fluorescence-based cell-based high throughput dose response assay for inhibitors of the interaction of nucleotide-binding oligomerization domain containing 2 (NOD2) and the receptor-interacting serine-threonine kinase 2 (RIPK2).; type: functional; conditions: Homo sapiens
HEK293 [7] = experiment: cells; conditions: Homo sapiens
HEK293 [8] = experiment: cells; conditions: Homo sapiens; remark: listed apart in the source
HEK293 [9] = experiment: cells; type: functional, cell-based; conditions: Homo sapiens
[10] = target: T4, Nuclear receptor subfamily 0 group B member 1 (Homo sapiens, UniProt P51843); experiment: Luminescence-based cell-based high throughput dose response assay for inhibitors of the orphan nuclear receptor subfamily 0, group B, member 1 (DAX1; NR0B1). [Related pubchem assays (depositor defined):AID504766, AID504790]; type: functional
T4 sequence (P51843 whole entry): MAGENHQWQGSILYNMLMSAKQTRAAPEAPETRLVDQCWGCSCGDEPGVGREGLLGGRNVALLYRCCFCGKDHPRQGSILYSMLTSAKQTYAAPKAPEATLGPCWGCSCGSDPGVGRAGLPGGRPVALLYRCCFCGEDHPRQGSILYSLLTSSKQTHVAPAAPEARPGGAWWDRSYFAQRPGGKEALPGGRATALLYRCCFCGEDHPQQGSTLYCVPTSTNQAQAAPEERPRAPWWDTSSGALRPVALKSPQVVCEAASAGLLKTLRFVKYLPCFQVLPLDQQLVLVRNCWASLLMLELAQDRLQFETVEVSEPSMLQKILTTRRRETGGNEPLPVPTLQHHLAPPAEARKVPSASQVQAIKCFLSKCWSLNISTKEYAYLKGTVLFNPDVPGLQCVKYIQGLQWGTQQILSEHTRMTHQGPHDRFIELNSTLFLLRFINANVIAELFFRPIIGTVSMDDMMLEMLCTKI

[11] = target: T5, Short transient receptor potential channel 4 (Mus musculus, UniProt Q9QUQ5); experiment: mouse TRPC4 channel activators, dose response, cell-based, HEK293 TRPC4/mu-opioid, Fluo-4 calcium (AID 434937); type: functional
T5 sequence (Q9QUQ5 whole entry): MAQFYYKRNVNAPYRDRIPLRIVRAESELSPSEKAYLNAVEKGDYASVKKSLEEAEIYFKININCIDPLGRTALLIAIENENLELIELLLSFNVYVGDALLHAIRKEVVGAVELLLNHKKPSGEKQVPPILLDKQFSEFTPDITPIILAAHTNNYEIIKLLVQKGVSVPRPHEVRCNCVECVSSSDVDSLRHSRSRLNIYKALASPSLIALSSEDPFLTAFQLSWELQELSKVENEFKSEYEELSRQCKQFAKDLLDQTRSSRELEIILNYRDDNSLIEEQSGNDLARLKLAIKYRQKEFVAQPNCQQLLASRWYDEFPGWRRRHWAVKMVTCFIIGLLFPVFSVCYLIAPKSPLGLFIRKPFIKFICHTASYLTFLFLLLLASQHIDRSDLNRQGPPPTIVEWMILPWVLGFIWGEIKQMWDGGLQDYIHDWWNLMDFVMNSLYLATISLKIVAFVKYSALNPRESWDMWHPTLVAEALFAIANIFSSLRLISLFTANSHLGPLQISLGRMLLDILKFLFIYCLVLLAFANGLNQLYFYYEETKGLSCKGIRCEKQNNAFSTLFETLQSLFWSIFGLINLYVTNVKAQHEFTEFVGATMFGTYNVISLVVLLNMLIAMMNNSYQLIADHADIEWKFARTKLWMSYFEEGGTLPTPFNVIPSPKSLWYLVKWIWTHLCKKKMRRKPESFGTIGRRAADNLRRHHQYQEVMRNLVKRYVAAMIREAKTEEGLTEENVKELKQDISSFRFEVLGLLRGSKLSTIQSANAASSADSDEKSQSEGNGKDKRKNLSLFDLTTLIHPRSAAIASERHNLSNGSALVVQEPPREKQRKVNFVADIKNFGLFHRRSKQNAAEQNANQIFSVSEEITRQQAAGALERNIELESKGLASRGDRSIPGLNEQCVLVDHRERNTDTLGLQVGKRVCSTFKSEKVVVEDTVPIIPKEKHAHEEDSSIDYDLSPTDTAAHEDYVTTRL

[12] = target: Delta-type opioid receptor (Homo sapiens, UniProt P41143); experiment: Counterscreen for agonists of heterodimerization of the mu 1 (OPRM1) and delta 1 (OPRD1) opioid receptors: Luminescence-based cell-based high throughput dose response assay to identify agonists of OPRD1 homodimerization. [Related pubchem assays (depositor defined):AID504326, AID504355, AID504692, AID504904, AID504905]; type: functional
Chain of Delta-type opioid receptor (P41143 whole entry): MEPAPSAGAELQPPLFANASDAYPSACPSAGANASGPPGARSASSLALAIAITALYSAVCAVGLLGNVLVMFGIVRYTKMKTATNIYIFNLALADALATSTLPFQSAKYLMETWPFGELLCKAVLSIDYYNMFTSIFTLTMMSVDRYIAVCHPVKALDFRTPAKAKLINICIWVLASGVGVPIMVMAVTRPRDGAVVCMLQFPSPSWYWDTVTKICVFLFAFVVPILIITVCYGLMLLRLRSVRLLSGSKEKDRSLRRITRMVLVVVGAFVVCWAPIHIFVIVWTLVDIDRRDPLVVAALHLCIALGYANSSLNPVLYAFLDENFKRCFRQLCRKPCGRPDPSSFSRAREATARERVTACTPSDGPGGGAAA

Mu-type opioid receptor = Mu-type opioid receptor (Homo sapiens, UniProt P35372); experiment: Counterscreen for agonists of heterodimerization of the mu 1 (OPRM1) and delta 1 (OPRD1) opioid receptors: Luminescence-based cell-based high throughput dose response assay to identify agonists of OPRM1 homodimerization.; type: functional;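 note: U2OS cells expressing OPRM1 and beta-arrestin as split beta-galactosidase partners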
Chain of Mu-type opioid receptor (P35372 whole entry): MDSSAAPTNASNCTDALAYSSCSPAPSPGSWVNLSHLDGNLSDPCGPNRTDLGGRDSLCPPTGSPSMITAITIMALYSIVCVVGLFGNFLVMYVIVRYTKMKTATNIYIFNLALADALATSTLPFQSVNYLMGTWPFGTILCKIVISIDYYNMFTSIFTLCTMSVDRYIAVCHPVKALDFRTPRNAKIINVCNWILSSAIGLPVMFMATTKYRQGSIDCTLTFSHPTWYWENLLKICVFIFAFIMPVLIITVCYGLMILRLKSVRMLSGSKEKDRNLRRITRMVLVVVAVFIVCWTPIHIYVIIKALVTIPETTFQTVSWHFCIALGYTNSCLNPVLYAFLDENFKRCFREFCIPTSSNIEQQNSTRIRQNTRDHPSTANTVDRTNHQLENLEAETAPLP

[13] = target: 5-hydroxytryptamine receptor 5A (Homo sapiens, UniProt P47898); experiment: Counterscreen for agonists of OPRM1-OPRD1 heterodimerization: luminescence-based cell-based high throughput dose response assay to identify agonists of 5-hydroxytryptamine (serotonin) 5A receptor (HTR5A). [Related pubchem assays (depositor defined):AID504326, AID504355, AID504692, AID504904, AID504905]; type: functional
Chain of 5-hydroxytryptamine receptor 5A (P47898 whole entry): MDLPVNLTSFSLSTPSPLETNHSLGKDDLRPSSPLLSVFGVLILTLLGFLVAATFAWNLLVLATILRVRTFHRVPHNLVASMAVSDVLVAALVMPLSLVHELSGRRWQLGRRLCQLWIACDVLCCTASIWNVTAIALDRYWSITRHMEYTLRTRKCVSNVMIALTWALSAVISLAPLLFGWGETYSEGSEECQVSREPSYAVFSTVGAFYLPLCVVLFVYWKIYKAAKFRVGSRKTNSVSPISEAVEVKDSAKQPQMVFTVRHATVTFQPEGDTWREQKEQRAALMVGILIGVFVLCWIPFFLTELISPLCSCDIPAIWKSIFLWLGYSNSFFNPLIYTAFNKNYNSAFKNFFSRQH

Hexokinase-1 [14] = target: T1, Hexokinase-1; experiment: HK1 enzyme inhibition by HKDC1 hits, SAR follow-up, selectivity assay for HKDC1 inhibitor project, biochemical, set 2, resazurin fluorescence coupled readout (AID 588356); type: functional
Hexokinase HKDC1 [15] = target: T2, Hexokinase HKDC1; experiment: HKDC1 hexokinase inhibitors, SAR follow-up, biochemical, set 2 (AID 588355); type: functional
[16] = target: T5, Short transient receptor potential channel 4; experiment: SAR Analysis for the identification of selective inhibits of the transient receptor potential cation channel C4 (TRPC4): Automated Electrophysiology_2. [Related pubchem assays (depositor defined):AID2256]; type: functional
[17] = target: T5, Short transient receptor potential channel 4; experiment: TRPC4 inhibitor concentration-response, dose response, cell-based, HEK293 TRPC4/mu-opioid, DAMGO stimulus, Fluo-4 (AID 492994); type: functional
Trypsin = Trypsin (Sus scrofa, UniProt P00761); experiment: porcine trypsin inhibitors, dose response, selectivity assay for Rce1 protease inhibitor project, biochemical, quenched peptide fluorescence, cherry-pick (AID 488789)
Chain of Trypsin (P00761 whole entry): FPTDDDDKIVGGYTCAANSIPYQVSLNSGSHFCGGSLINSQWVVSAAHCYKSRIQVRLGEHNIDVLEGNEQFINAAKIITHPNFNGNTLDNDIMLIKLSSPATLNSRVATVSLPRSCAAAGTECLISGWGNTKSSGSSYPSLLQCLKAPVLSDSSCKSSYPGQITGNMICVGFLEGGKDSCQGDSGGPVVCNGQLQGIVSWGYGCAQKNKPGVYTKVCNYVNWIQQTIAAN

CAAX prenyl protease 2 = CAAX prenyl protease 2 (Homo sapiens, UniProt Q9Y256); experiment: human Rce1 protease inhibitors, dose response, biochemical, yeast membranes, quenched-peptide fluorescence, cherry-pick (AID 588849)
Chain of CAAX prenyl protease 2 (Q9Y256 whole entry): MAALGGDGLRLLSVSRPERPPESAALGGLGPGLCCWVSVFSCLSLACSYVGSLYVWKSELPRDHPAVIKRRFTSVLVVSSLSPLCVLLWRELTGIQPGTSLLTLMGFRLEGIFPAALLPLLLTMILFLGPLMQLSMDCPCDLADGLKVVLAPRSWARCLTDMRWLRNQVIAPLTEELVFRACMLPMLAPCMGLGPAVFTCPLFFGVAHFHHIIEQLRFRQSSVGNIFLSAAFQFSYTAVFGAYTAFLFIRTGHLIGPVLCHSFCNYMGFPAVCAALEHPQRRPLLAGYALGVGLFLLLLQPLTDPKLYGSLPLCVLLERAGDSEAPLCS

Beta-arrestin-1 = Beta-arrestin-1 (Homo sapiens, UniProt P49407); experiment: inhibitors of arrestin peptide binding to AP2, dose response, biochemical, cherry pick 1, beta2-adaptin appendage, flow cytometry (AID 588783); type: functional
Chain of Beta-arrestin-1 (P49407 whole entry): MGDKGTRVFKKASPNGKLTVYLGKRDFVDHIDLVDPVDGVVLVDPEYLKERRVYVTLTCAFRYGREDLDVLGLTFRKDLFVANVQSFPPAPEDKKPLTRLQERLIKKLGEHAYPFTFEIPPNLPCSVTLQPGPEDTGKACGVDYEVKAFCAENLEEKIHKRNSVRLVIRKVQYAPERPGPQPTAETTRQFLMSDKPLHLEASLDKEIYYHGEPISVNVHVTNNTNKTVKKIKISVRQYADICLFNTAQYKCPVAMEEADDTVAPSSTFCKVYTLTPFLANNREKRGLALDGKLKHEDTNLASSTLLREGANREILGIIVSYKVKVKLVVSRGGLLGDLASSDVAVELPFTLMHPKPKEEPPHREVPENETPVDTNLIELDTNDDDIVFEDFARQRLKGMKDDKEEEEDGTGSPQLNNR

[18] = target: Voltage-gated inwardly rectifying potassium channel KCNH2 (Homo sapiens, UniProt Q12809); conditions: Potency;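 note: confirmatory quantitative high-throughput screen measuring inhibition of hERG channel activity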
Chain of Voltage-gated inwardly rectifying potassium channel KCNH2 (Q12809 whole entry): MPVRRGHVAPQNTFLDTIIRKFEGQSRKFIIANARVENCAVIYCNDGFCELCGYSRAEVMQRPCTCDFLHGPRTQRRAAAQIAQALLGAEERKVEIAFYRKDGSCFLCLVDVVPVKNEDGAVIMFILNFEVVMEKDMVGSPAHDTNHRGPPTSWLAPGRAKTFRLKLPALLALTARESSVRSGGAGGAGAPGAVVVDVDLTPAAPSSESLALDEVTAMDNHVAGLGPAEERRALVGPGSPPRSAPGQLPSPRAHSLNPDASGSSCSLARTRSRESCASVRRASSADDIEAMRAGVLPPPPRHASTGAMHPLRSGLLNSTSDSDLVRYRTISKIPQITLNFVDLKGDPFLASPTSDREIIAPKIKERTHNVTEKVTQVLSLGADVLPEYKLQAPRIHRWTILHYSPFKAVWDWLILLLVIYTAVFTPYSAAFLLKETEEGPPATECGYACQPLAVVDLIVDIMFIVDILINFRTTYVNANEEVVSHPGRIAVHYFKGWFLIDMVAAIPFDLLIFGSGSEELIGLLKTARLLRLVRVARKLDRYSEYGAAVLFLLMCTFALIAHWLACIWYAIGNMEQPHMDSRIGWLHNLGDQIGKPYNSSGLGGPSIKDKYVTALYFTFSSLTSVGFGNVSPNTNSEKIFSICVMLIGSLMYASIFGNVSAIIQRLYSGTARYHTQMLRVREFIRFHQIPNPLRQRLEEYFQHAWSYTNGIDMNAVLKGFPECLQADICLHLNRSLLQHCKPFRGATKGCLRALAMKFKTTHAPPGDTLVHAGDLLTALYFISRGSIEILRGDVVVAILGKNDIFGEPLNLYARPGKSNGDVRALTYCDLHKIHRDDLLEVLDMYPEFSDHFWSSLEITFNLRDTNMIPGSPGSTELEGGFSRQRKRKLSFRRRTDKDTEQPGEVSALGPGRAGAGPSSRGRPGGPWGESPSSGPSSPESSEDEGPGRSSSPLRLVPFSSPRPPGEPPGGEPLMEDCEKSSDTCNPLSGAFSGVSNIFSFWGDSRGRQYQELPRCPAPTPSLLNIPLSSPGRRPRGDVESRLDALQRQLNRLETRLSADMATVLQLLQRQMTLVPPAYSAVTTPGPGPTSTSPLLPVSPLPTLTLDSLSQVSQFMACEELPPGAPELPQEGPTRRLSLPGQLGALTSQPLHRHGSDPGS

O=C(Nc1cccc(C(F)(F)F)c1)c1cccc(NC(=O)c2ccc3ccccc3n2)c1
IC50 (Hexokinase-1 [1]): > 80 µM (inactive)
IC50 (Hexokinase HKDC1 [2]): > 80 µM (inactive)

Cc1ccc(-n2cc(CNCCCn3cccn3)c(-c3cccc(C)c3)n2)cc1
AC50 (A-375): 24.3 µM (active)

Cc1cccc(C(=O)Nc2ccc(C(=O)/C=C/c3ccncc3)cc2)c1
EC50 (Beta-galactosidase): > 40 µM (inactive)
IC50 [3]: 9.71 µM (active)
AC50 [4]: 3.41 µM (active)
AC50 [5]: 36.4 µM (active)
IC50 [6]: 3.51 µM (active)
EC50 (HEK293 [7]): > 59.6 µM (inactive)
EC50 (HEK293 [8]): > 59.6 µM (inactive)

COc1cccc(CNC(=O)CN(C)S(=O)(=O)c2ccc(Br)s2)c1
IC50 (HEK293 [9]): 24.6 µM (inactive)
IC50 [10]: > 67.5 µM (inactive)

CN(C)C(CNC(=O)Cc1ccc([N+](=O)[O-])cc1)c1ccccc1 (centres undefined)
EC50 [11]: 531 nM (active)
EC50 [12]: > 92.5 µM (inactive)
EC50 (Mu-type opioid receptor): > 92.5 µM (inactive)
EC50 [13]: > 92.5 µM (inactive)

COc1ccc(NC2c3ccccc3C(=O)N2c2ccccc2C)cc1 (centres undefined)
IC50 (Hexokinase-1 [14]): > 80 µM (inactive)
IC50 (Hexokinase HKDC1 [15]): > 80 µM (inactive)

Cc1cc(N2CCCCCC2)nc2ccc(F)cc12
IC50 [16]: 1.63 µM (active)
IC50 [17]: 3.99 µM (active)

COc1ccc(/C=C\c2cc(OC)c(OC)cc2CC[N+](C)(C)C)cc1OC
AC50 (Trypsin): 11.6 µM (active)
AC50 (CAAX prenyl protease 2): 13.2 µM (active)

CCN1/C(=C/c2ccc3cc(C)ccc3[n+]2C)Sc2ccc3sccc3c21
IC50 (Beta-arrestin-1): 3.12 µM (active)

CCCN(CCC)C1Cc2cc(OC)c(OC)cc2C1
AC50 [18]: 14.1 µM (inconclusive)
